Laboratory results reported in US8466197B2, “Thiocarbonates as anti-inflammatory and antioxidant compounds useful for treating metabolic disorders” (Genmedica Therapeutics SL, priority 2010, dated 2013).

How the values were obtained:
[1] = Pharmacokinetic study: diflunisal levels in plasma after oral administration in mice; type: in vivo; settings: 0.05 mmol/kg
Experimental: Diflunisal is detected in plasma of mice orally dosed with the compound described in Example 5 or the compound described in Example 8 (0.05 mmol/kg) (table 3).
Male cd-1 mice weighing 25-30 g are purchased from Charles River Laboratories Spain. The animals are housed in animal quarters at 22° C. with a 12-h light/12-h dark cycle and fed ad libitum. O/N fasted animals are dosed at […] with 0.05 mmol/kg of the indicated compound. […] Plasma was separated after centrifugation of blood and kept at −20° C. until metabolites determination.

[2] = In vitro cleavage studies: incubation with human liver S9 fraction, release of the NSAID; type: in vitro ADME; settings: after 1 h of incubation
Experimental: Table 1 and 2 summarize in vitro data showing that thiocarbonate compounds are hydrolyzed in the presence of human liver S9 fraction and release the NSAID component, Diflunisal (Table 1) or salicylate (Table 2).
The compounds are incubated with human liver S9 fraction to study its metabolic stability and to profile and identify the forming metabolites. The basic incubation mixture of 500 μl in volume consisted of the following components: 1.5 mg of protein per ml, substrate in DMSO, 1 mM NADPH, 1 mM UDPGA, 1 mM PAPS and 1 mM GSH. The substrate concentration used was 2 μM. The final amount of DMSO in the incubation was 1% (v/v). Each reaction mixture was preincubated for 2 minutes at +37° C. The reaction was started by addition of cofactors. After an incubation of 60 min, a 100 μl sample was collected and the reaction was terminated by adding an equal volume of ice-cold acetonitrile. Samples were subsequently cooled in an ice bath for 15 minutes and analyzed. […] The samples are analyzed by HPLC/TOF-MS to monitor both the disappearance of the parent compound and formation of metabolites. […] In addition to ion source conditions optimised to produce molecular ions with high abundance, the samples from last time point (60 min) are analysed also using another parameters (higher aperture voltage) to generate high-resolution in-source fragment ion data. […]

db/db mice = test: Reduction of fasting glycemia in db/db mice; type: in vivo; settings: db/db mice treated for two weeks with a daily dose, versus vehicle; t-test p less than 0.01 (FIG. 1)
Experimental: 5-weeks old male mice C57BL/Ks bearing the db/db mutation (The Jackson Laboratories) and 7-weeks old male mice C57BL/6 bearing the ob/ob mutation are purchased from Charles River Laboratories Spain (Sant Cugat del Vallès, Spain) are treated with compounds as disclosed herein for a month, administered by single oral injection. Glycemia levels are determined in blood from the Tail Vein, using a rapid glucose analyzer (Accu-Chek Aviva; Roche) 3 times per week, as well as body weight measure. The food and water intake is measured twice a week.
db/db mice were treated for two weeks with a daily dose of the compound of Example 8, (R)-2-acetamido-3-((2′,4′-difluoro-3-(propoxycarbonyl)biphenyl-4-yloxy)carbonylthio) propanoic acid, or with vehicle.

| Diflunisal detected in plasma of orally dosed mice [1] | SMILES | Release of the NSAID (diflunisal or salicylate) on incubation in the presence of human liver S9 fraction [2] | Fasting glycemia (db/db mice) |
| --- | --- | --- | --- |
| detected | COC(=O)c1cc(-c2ccc(F)cc2F)ccc1OC(=O)SCCC(NC(C)=O)C(=O)O (racemic) [Example 5, (+/−)-2-Acetamido-4-((2′,4′-difluoro-3-(methoxycarbonyl)biphenyl-4-yloxy)carbonylthio)butanoic acid] |  |  |
|  | COC(=O)c1ccccc1OC(=O)SC[C@H](NC(C)=O)C(=O)O [Example 2, (R)-2-Acetamido-3-((2-(methoxycarbonyl)phenoxy)carbonylthio)propanoic acid] | no diflunisal or salicylate has been detected |  |
|  | CC(=O)N[C@@H](CSC(=O)Oc1ccccc1C(=O)OCc1ccccc1)C(=O)O [Example 4, (R)-2-Acetamido-3-((2-(benzyloxycarbonyl)phenoxy)carbonylthio) propanoic acid] | no diflunisal or salicylate has been detected |  |
| detected | CCCOC(=O)c1cc(-c2ccc(F)cc2F)ccc1OC(=O)SC[C@H](NC(C)=O)C(=O)O [Example 8, (R)-2-Acetamido-3-((2′,4′-difluoro-3-(propoxycarbonyl)biphenyl-4-yloxy)carbonylthio)propanoic acid] |  | significantly reduced |
